Patent US20260097022A1, “COMPOUNDS AND USES THEREOF” (Integrated Biosciences, Inc., priority 2023, published 2026)

Test system: etoposide-treated IMR-90 cells
Test: Etoposide-induced senescence model, resazurin cell viability (screen and dose-response)
Format: cell-based, human
Conditions: 10 μM, 3 days; active: control viability >0.5, Snc/control ratio <0.7
Method: Cell culture. Human lung fibroblast (IMR-90) cells were obtained from ATCC (CCL-186) and passaged less than 10 times (less than 30 population doublings) for all experiments described in this example, with the exception of high-passage cells used in the model of replicative senescence (see the section on Replicative senescence below). Cells were cultured in growth media comprising Eagle's Minimum Essential Medium (EMEM: ATCC 30-2003) supplemented with 10% fetal bovine serum (FBS: Thermo Fisher 16140071) and 1% penicillin-streptomycin (Thermo Fisher 15070063). Cells were incubated in a humidity-controlled incubator at 37° C., with 5% CO2. Cells were detached using trypsin-EDTA (0.05%; Gibco 25300120).
Etoposide-induced senescence. IMR-90 cells were cultured as described above. At between 30 to 50% confluence, the media was replaced with complete growth media containing vehicle (0.5% dimethyl sulfoxide: DMSO, MilliporeSigma D5879) or complete growth media containing 50 μM etoposide (prepared as a 1:200 dilution of a 10 mM stock solution in DMSO; etoposide, MilliporeSigma E1383). Cells were treated for 2 days, after which the media was replaced with fresh growth media and cells were allowed to recover for 4 days. Cells were then plated as described below.
Chemical screening. For all screening experiments. 99 μL of cells were plated into each well of a 96-well clear flat-bottom, black polystyrene tissue-culture-treated plate (Corning 3904) at a density of ˜10+ cells/well. Plates were incubated overnight for adhesion. The day after plating. 1 μL of each compound, prepared as either a 1 mM stock solution in DMSO (10 μM final concentration screen) or 0.1 mM stock solution in DMSO (1 μM final concentration screen), was added to each well using an Agilent Bravo liquid handler. A built-in slow mixing step involving aspirating and dispensing was used to enhance distribution of the added compounds in solution. Cells were incubated for 3 days, after which resazurin (MilliporeSigma R^7017) was added to each well to a final concentration of 0.15 mM. After an additional 1 day of incubation, the fluorescence excitation/emission at 550/590 nm was read using a SpectraMaxR M3 plate reader and manufacturer software (SoftMax Pro R 6). Experiments were performed in biological duplicate.
Three-fold serial dilutions of compound were prepared in DMSO, then added to cell plates (final concentration of DMSO. 1%). Cell viability was then assayed as detailed above, and resazurin fluorescence values were linearly interpolated with respect to values from empty and positive control (non-treatment) wells. Experiments were performed in biological duplicate each on two independent occasions. When possible, chemical stocks from commercial suppliers were used: econazole nitrate (Cayman Chemical 20223), artenimol (Cayman Chemical 19846), and ABT-263 (Cayman Chemical 11500) were from Cayman Chemical, and dehydrodeguelin was aliquoted from the screening library.
Calculation of cellular viability values in dose-response curves. […] For each sample, the fluorescence intensity value was normalized by the mean of two untreated control values. Cellular viability values are therefore indicated as fractions of the cellular viability of untreated controls. Vehicle (1% DMSO) control values are included in each dose-response curve. Experiments were performed in biological duplicate each on two independent occasions.
Calculation of baseline cellular viability values. […] Additionally, baseline cellular viability values were calculated for untreated cells at the start of the experiment. Resazurin was added to a final concentration of 0.15 mM on the day of seeding (corresponding to day 0 in FIG. 7).

Row | Compound | senolytic activity in screen
1 | C[C@@H]1O[C@@H](O[C@H]2C[C@@H](O)[C@]3(CO)[C@H]4[C@H](O)C[C@]5(C)[C@@H](C6=CC(=O)OC6)CC[C@]5(O)[C@@H]4CC[C@]3(O)C2)[C@H](O)[C@H](O)[C@H]1O [ouabain, reference compound] | active

Same assay, conditions: etoposide-induced senescence model; ratio of IC50 values between etoposide- and DMSO-treated IMR-90 fibroblasts

Row | Compound | Therapeutic Index (TI)
2 | COc1ccc(NC(=O)CSc2nc3ccc(NC(=O)c4ccccc4Cl)cc3s2)cc1 [compound 66] | ++ (compounds with a TI of 1 to 5 were labelled as ++)
3 | CCc1ccc(NC(=O)CSc2nc3ccc(NC(=O)c4ccccc4OC)cc3s2)cc1 [compound 123] | ++ (compounds with a TI of 1 to 5 were labelled as ++)
4 | O=C(CSc1nc2ccc(NC(=O)c3ccc(F)cc3)cc2s1)Nc1cccc(Cl)c1 [compound 51] | ++ (compounds with a TI of 1 to 5 were labelled as ++)
5 | CC(C)c1ccc(NC(=O)CSc2nc3ccc(NC(=O)c4ccccc4)cc3s2)cc1 [compound 14] | +++ (compounds with a TI of >5 were labeled as +++)
6 | O=C(CSc1nc2ccc(NC(=O)c3ccccc3)cc2s1)Nc1ccccc1 [compound 142] | + (Compounds with a TI of <1 were labelled as +)
7 | O=C(CSc1nc2ccc(NC(=O)c3ccccc3Cl)cc2s1)Nc1ccc(F)cc1 [compound 23] | +++ (compounds with a TI of >5 were labeled as +++)
8 | Cc1ccccc1C(=O)Nc1ccc2nc(SCC(=O)Nc3ccc(F)cc3)sc2c1 [compound 20] | +++ (compounds with a TI of >5 were labeled as +++)
9 | CCc1ccc(NC(=O)CSc2nc3ccc(NC(=O)c4ccccc4)cc3s2)cc1 [compound 134] | ++ (compounds with a TI of 1 to 5 were labelled as ++)
10 | CCCCCCCCCCOc1ccc(C(=O)Nc2ccc3nc(SCC(=O)Nc4ccccc4)sc3c2)cc1 [compound 149] | + (Compounds with a TI of <1 were labelled as +)
11 | CS(=O)(=O)c1ccc(C(=O)Nc2ccc3nc(SCC(=O)Nc4cccc(S(N)(=O)=O)c4)sc3c2)cc1F [compound 173] | ++ (compounds with a TI of 1 to 5 were labelled as ++)
12 | COc1ccc(NC(=O)CSc2nc3ccc(NC(=O)c4cccc(F)c4)cc3s2)cc1 [compound 48] | ++ (compounds with a TI of 1 to 5 were labelled as ++)
13 | COc1ccc(C(=O)Nc2ccc3nc(SCC(=O)Nc4ccc(C)c(Cl)c4)sc3c2)cc1 [compound 74] | ++ (compounds with a TI of 1 to 5 were labelled as ++)
14 | COc1ccccc1C(=O)Nc1ccc2nc(SCC(=O)Nc3c(C)cc(C)cc3C)sc2c1 [compound 44] | ++ (compounds with a TI of 1 to 5 were labelled as ++)
15 | CCOc1ccc(C(=O)Nc2ccc3nc(SCC(=O)Nc4ccc(C)cc4)sc3c2)cc1 [compound 94] | ++ (compounds with a TI of 1 to 5 were labelled as ++)
16 | CCOc1ccc(NC(=O)CSc2nc3ccc(NC(=O)c4cccc(C)c4)cc3s2)cc1 [compound 2] | +++ (compounds with a TI of >5 were labeled as +++)
17 | COc1ccc(NC(=O)CSc2nc3ccc(NC(=O)c4ccccc4OC)cc3s2)cc1 [compound 101] | ++ (compounds with a TI of 1 to 5 were labelled as ++)
18 | O=C(CSc1nc2ccc(NC(=O)c3ccc(Cl)cc3)cc2s1)Nc1ccc(F)cc1 [compound 62] | ++ (compounds with a TI of 1 to 5 were labelled as ++)
19 | COc1ccc(C(=O)Nc2ccc3nc(SCC(=O)Nc4ccccc4)sc3c2)c(F)c1 [compound 172] | +++ (compounds with a TI of >5 were labeled as +++)
20 | O=C(CSc1nc2ccc(NC(=O)c3ccccc3)cc2s1)Nc1ccccc1C(F)(F)F [compound 128] | ++ (compounds with a TI of 1 to 5 were labelled as ++)
21 | COc1ccc(C(=O)Nc2ccc3nc(SCC(=O)N(C)c4ccccc4)sc3c2)cc1 [compound 156] | + (Compounds with a TI of <1 were labelled as +)

Row | Compound | Therapeutic Index (TI)
22 | COc1cccc(NC(=O)CSc2nc3ccc(NC(=O)c4ccccc4C)cc3s2)c1 [compound 158] | + (Compounds with a TI of <1 were labelled as +)
23 | CCOc1ccc(NC(=O)CSc2nc3ccc(N4C(=O)c5ccccc5C4=O)cc3s2)cc1 [compound 25] | +++ (compounds with a TI of >5 were labeled as +++)
24 | COc1cccc(C(=O)Nc2ccc3nc(SCC(=O)N(C)c4ccccc4)sc3c2)c1 [compound 45] | ++ (compounds with a TI of 1 to 5 were labelled as ++)
25 | Cc1cc(C)c(NC(=O)CSc2nc3ccc(NC(=O)c4ccccc4Cl)cc3s2)c(C)c1 [compound 58] | ++ (compounds with a TI of 1 to 5 were labelled as ++)
26 | Cc1cc(C)c(NC(=O)C(C)Sc2nc3ccc(NC(=O)c4ccccc4)cc3s2)c(C)c1 (centres unmarked) [compound 139] | ++ (compounds with a TI of 1 to 5 were labelled as ++)
27 | CCOc1ccc(NC(=O)C(C)Sc2nc3ccc(NC(=O)c4ccccc4)cc3s2)cc1 (centres unmarked) [compound 38] | ++ (compounds with a TI of 1 to 5 were labelled as ++)
28 | COc1cccc(C(=O)Nc2ccc3nc(SCC(=O)Nc4ccccc4)sc3c2)c1 [compound 53] | ++ (compounds with a TI of 1 to 5 were labelled as ++)
29 | COc1ccccc1C(=O)Nc1ccc2nc(SCC(=O)Nc3ccc(Cl)cc3)sc2c1 [compound 112] | ++ (compounds with a TI of 1 to 5 were labelled as ++)
30 | Cc1ccc(NC(=O)CSc2nc3ccc(NC(=O)c4ccccc4F)cc3s2)cc1Cl [compound 143] | + (Compounds with a TI of <1 were labelled as +)
31 | Cc1ccc(NC(=O)CSc2nc3ccc(NC(=O)c4ccccc4C)cc3s2)cc1 [compound 141] | ++ (compounds with a TI of 1 to 5 were labelled as ++)
32 | COC(=O)c1ccc(NC(=O)CSc2nc3ccc(NC(=O)c4ccc(C)cc4)cc3s2)cc1 [compound 169] | + (Compounds with a TI of <1 were labelled as +)
33 | CCOc1ccc(C(=O)Nc2ccc3nc(SCC(N)=O)sc3c2)cc1 [compound 91] | ++ (compounds with a TI of 1 to 5 were labelled as ++)
34 | COc1ccccc1C(=O)Nc1ccc2nc(SCC(=O)Nc3ccc(C(C)C)cc3)sc2c1 [compound 155] | + (Compounds with a TI of <1 were labelled as +)
35 | Cc1ccccc1C(=O)Nc1ccc2nc(SCC(=O)Nc3cccc(Cl)c3)sc2c1 [compound 107] | ++ (compounds with a TI of 1 to 5 were labelled as ++)
36 | COc1ccc(C(=O)Nc2ccc3nc(SCC(=O)Nc4ccccc4Cl)sc3c2)cc1 [compound 63] | ++ (compounds with a TI of 1 to 5 were labelled as ++)
37 | Cc1ccccc1C(=O)Nc1ccc2nc(SCC(=O)Nc3ccc(Cl)cc3)sc2c1 [compound 100] | ++ (compounds with a TI of 1 to 5 were labelled as ++)
38 | CCCCOc1ccc(NC(=O)CSc2nc3ccc(NC(=O)c4cccc5ccccc45)cc3s2)cc1 [compound 54] | ++ (compounds with a TI of 1 to 5 were labelled as ++)
39 | COc1ccccc1C(=O)Nc1ccc2nc(SCC(=O)Nc3ccccc3C)sc2c1 [compound 130] | ++ (compounds with a TI of 1 to 5 were labelled as ++)
40 | Cc1ccc(C(=O)Nc2ccc3nc(SCC(=O)Nc4ccccc4)sc3c2)cc1 [compound 36] | ++ (compounds with a TI of 1 to 5 were labelled as ++)
41 | COc1ccc(NC(=O)CSc2nc3ccc(NC(=O)c4cccc5ccccc45)cc3s2)cc1 [compound 108] | ++ (compounds with a TI of 1 to 5 were labelled as ++)
